Experimental data published in a melting point compilation (Tetko et al.; mined from patent text by program, amines drawn as free bases though some values may be those of a salt).

| SMILES | melting point |
| --- | --- |
| CC(=O)N(C)c1csc(Br)n1 | 84 °C |
| O=c1c2c(O)cc(O)cc2ncn1-c1ccc(O)cc1 | 240 to 245 °C |
| C=CCNC(=S)C(CN1CCOCC1)c1ccccn1 (stereo unspecified) | 84 to 86 °C |
| CC=C(c1ccc(N(C)C)cc1)c1ccc(N(C)C)cc1 | 99 to 101 °C |
| O=C(Nc1ccc(C(=O)N2Cc3cccn3Cc3ccccc32)cc1)c1sc2ccccc2c1Cl | 220 to 222 °C |
| COc1ccc2c(ccn3c(C)nnc23)c1 | 183 to 184 °C |
| O=C(CCl)Cc1nc2ccccc2c(=O)n1-c1ccc(Cl)cc1 | > 275 °C |
| N#Cc1nc(F)c(F)c(N)c1Cl | 190 to 192 °C |
| COc1ccc(S(=O)C(C)(CC=C(C)C)C(=O)NO)cc1 (stereo unspecified) | 108 °C |
| O=C(Nc1cccc(Nc2ccc3c(c2)NC(=O)C3=Cc2ccc[nH]2)c1)Nc1cc(F)c(F)cc1F | 224 to 226 °C |
| Cc1nc(-c2ccc(C(=O)N3CCN(S(=O)(=O)c4ccc5cc(Br)ccc5c4)CC3)cc2)c[nH]1 | 215 to 216 °C |
| CN=C(NC#N)Oc1ccccc1 | 132 to 133 °C |
| O=C(NC(C(=O)O)c1ccc[nH]1)OCC(Cl)(Cl)Cl (stereo unspecified) | 111 °C |
| COC(=O)COc1c(C)cc(SCc2ccc(-c3ccc(C(F)(F)F)cn3)cc2)c2c1CCO2 | 94 to 95 °C |
| Cc1cc(O)c([N+](=O)[O-])cc1C(=O)c1c(Cl)cccc1Cl | 170 °C |
| CC(C)c1cccc(C(C)C)c1NC(=S)NC1CCCC(C(F)(F)F)C1 (stereo unspecified) | 67 to 75 °C |
| Cc1c(N2CCC(n3cccc3)CC2)c(F)cn2c(=O)c(C(=O)O)cc(C3CC3)c12 | 268 to 269 °C |
| CCCCn1c(=O)c2c(NC)n[nH]c2n(CCO)c1=O | 248 to 253 °C |
| COCOCCCOn1cnc2cnc(N)nc21 | 80 to 81 °C |
| CC(=O)C(=NO)C(=O)OC(C)(C)C | 55 to 63 °C |
| Cc1cc2ccccn2c1C(=O)c1ccc(O)c(Br)c1 | 216 to 217 °C |
| N#Cc1c[nH]c(-c2ccccc2)c1 | 150 to 151 °C |
| CNc1nc(-c2cccc(-c3ccc(S(C)=O)cc3)c2)c2cc(OC)c(OC)cc2n1 (stereo unspecified) | 153 to 155 °C |
| COC(=O)CCCCOc1ccc2nc3[nH]c(=O)[nH]c3cc2c1 | 281 to 282 °C |
| CC(=Cc1c[nH]c2ccc3c(c12)CC(O)CO3)[N+](=O)[O-] (stereo unspecified) | 240 to 242 °C |
| O=C(O)C1CCc2c(c3ccccc3n2C(=O)c2cccc(Cl)c2)C1 (stereo unspecified) | 179 to 181 °C |
| CCC1(CC)c2cc(-c3nc4ccccc4s3)ccc2-c2ccc(N(c3cccc(Oc4ccc([N+](=O)[O-])cc4)c3)c3cccc(Oc4ccc([N+](=O)[O-])cc4)c3)cc21 | 200 to 201 °C |
| Cc1nc2c(O[C@@H]3c4ccccc4C[C@H]3O)cccn2c1N=O (relative stereo) | 178 to 179 °C |
| CCCCCCCCCCCCCCOc1ccc(CC(=O)Nc2cccc(-c3nccs3)c2)cc1 | 128 to 131 °C |

Results, then the compound that gave them:

| melting point | SMILES |
| --- | --- |
| 211 to 213 °C | OCc1nc2cnc3ccccc3c2n1Cc1ccccc1 |
| 60.5 to 61.5 °C | COc1ccc(C=C(C(=O)C2CC2)C(=O)C2CC2)cc1 |
| 90 °C | N#CCc1ccc(OCc2ccccc2)c(OCc2ccccc2)c1CCc1cccc(OCc2ccccc2)c1 |
| 147 to 149 °C | CNCCSC1=Cc2ccccc2Sc2ccc(O)cc21 |
| 266 to 270 °C | O=C(c1ccc2ccccc2c1)n1c2cc(O)c(O)cc2c2ccc(O)c(O)c21 |
| 204 °C | CCc1c(C=CC(=O)O)ccc2c1OCO2 |
| 79 to 82 °C | CC(C)(C)c1cc(SCc2ccccc2C#N)cc(C(C)(C)C)c1O |
| 246 °C | CCCN1CCC(C2=C(C#N)C(c3cccc4nonc34)c3c[nH]nc3N2)CC1 (stereo unspecified) |
| 135 °C | CN1CCCC[C@@H]1Cc1c(-c2ccccc2)[nH]c2ccccc12 |
| 174 to 175 °C | COc1ccnc(CCc2nc3cc(-c4ccc(S(=O)(=O)N5CCC(C(=O)c6ccccc6)CC5)cc4)cnc3[nH]2)c1 |
| 102 to 106 °C | CCCCCCSC(=S)N1Cc2[nH]c3ccccc3c2CC1CO (stereo unspecified) |
| 95 to 97 °C | Brc1ccccc1SSc1ccccc1Br |
| > 250 °C | Cc1cc(=O)n(-c2cc3[nH]c(=O)sc3cc2F)c(=O)n1C |
| 73.3 °C | COc1cc(OCC2CCCO2)ccc1C=O (stereo unspecified) |
| 170 °C | Cc1cc(N)nc(CCc2nc3cc(-c4ccc(C(F)(F)F)cc4)cnc3[nH]2)c1 |
| 223 to 225 °C | CS(=O)(=O)c1ccc(-c2[nH]c(C(O)(C(F)(F)F)C(F)(F)F)nc2-c2ccccc2)cc1 |
| 86 °C | C=Cc1cc(CCNc2ncnc3c(F)ccc(F)c23)ccc1Oc1cc(C(F)(F)F)ccn1 |
| 123 to 124 °C | COc1ccc(-c2[nH]c(C(N)(C(F)(F)F)C(F)(F)F)nc2-c2ccc(F)cc2)cc1 |
| 75 to 76 °C | CCc1cc(=O)c2cc(CCO)ccc2o1 |
| 201 to 203 °C | CCOC(=O)c1ncc2[nH]c3ccc(C(C)(C)C)cc3c2c1C |
| 154 to 156 °C | Cc1c(Cl)cccc1N1C(=O)CN(c2ccccc2)C1=S |

| melting point | SMILES |
| --- | --- |
| 117 °C | CC1CN(C(=O)COc2cc(-c3ccccc3)nc3ccccc23)CC(C)O1 (stereo unspecified) |
| 202 to 204 °C | CC(=O)N1CCC(NC(=O)NC23CC4CC(CC(C4)C2)C3)CC1 |
| 84 to 85 °C | COc1ccc(CCOCCCCCCNCC(O)c2ccc(O)c(CCO)c2)cc1 (stereo unspecified) |
| 75 to 76 °C | ClCc1cncc(-c2ccccc2)c1 |
| 151 to 154 °C | Cc1cc(-n2cncn2)cc(I)c1N |
| 96 to 98 °C | O=C(Nc1ccc(Oc2ccnc(NCC3OCCO3)n2)c2ccccc12)c1cc(F)cc(N2CCCCC2)c1 |
| 178 to 179 °C | N#Cc1cccc(-c2ccc(=O)n(Cc3cccc(-c4ncc(Br)cn4)c3)n2)c1 |
| 129 °C | Cc1ccc(S(=O)(=O)N2[C@@H](CCc3nc(C4CC4)no3)CC[C@H]2c2ccc(F)cc2)cc1 (racemic) |
| 92 to 94 °C | COC(=O)N(c1cc(C)ccc1C(=O)c1ccc(F)cc1)C(C)C |
| 182 to 184 °C | CSCc1cn(C)c2cc(C(F)(F)F)ccc2c1=O |
| 45 °C | OCCON=Cc1ccccn1 |
| 144 to 145 °C | CCOc1nn(Cc2cccc(OCc3nc(-c4ccccc4)oc3C)n2)cc1CCC(=O)O |
| 119 to 121 °C | CN1CCN(C2=Cc3cc(Cl)ccc3Oc3ccccc32)CC1 |
| 90 to 110 °C | CCOC(=O)c1c(C(C)C)nc2onc(C)c2c1-c1ccc(F)cc1 |
| 106 to 110 °C | CCN1CCN(S(=O)(=O)c2ccc(C(CC3CCCC3)C(=O)Nc3nc4ccc(OC)nc4s3)cc2)CC1 (stereo unspecified) |
| 151 to 152 °C | COc1ccc(CN(Cc2ccco2)S(=O)(=O)c2ccc(C(=O)O)cc2)cc1 |
| 175 to 178 °C | COc1ccc(OC)c2c1C[C@](O)(C(C)=O)CC21SCCS1 |
| 125 to 126 °C | COCN1c2cc(CCl)ccc2Sc2nccnc21 |
| 114 to 115 °C | CN(CCCNC(=S)c1cc(C(C)(C)C)c(O)c(C(C)(C)C)c1)CCOc1ccc2c(c1)OCO2 |
| 90 to 91 °C | CC(=O)OCC1OC(n2c(Cl)nc3cc(F)c(F)cc32)C(OC(C)=O)C1OC(C)=O (stereo unspecified) |
| 182 to 185 °C | COc1nc(NC(=O)NS(=O)(=O)c2ccccc2C(=O)OC(C)C)nc(C(F)(F)F)n1 |
